In ChEMBL document CHEMBL4346729, “The discovery of novel 3-aryl-indazole derivatives as peripherally restricted pan-Trk inhibitors for the treatment of pain” (Bioorg Med Chem Lett, 2019):

Experiments:
[1] = Toxicity in CFA induced Sprague-Dawley rat assessed as increase in weight gain at 20 mg/kg, po and measured up to 3 days; format: organism-based; conditions: in vivo, 72 h
[2] = Unbound drug level in brain of CFA induced Sprague-Dawley rat at 100 mg/kg, po after 1 hr; format: ADME, organism-based; conditions: in vivo
[3] = target: cGMP-dependent protein kinase 1 (Homo sapiens) (UniProt Q13976); assay: Inhibition of PRKG1 (unknown origin) at 20 nM using cGMP as substrate incubated for 60 mins in presence of [33P]-ATP by scintillation counting method
Chain of cGMP-dependent protein kinase 1 (Homo sapiens) (Q13976 whole entry): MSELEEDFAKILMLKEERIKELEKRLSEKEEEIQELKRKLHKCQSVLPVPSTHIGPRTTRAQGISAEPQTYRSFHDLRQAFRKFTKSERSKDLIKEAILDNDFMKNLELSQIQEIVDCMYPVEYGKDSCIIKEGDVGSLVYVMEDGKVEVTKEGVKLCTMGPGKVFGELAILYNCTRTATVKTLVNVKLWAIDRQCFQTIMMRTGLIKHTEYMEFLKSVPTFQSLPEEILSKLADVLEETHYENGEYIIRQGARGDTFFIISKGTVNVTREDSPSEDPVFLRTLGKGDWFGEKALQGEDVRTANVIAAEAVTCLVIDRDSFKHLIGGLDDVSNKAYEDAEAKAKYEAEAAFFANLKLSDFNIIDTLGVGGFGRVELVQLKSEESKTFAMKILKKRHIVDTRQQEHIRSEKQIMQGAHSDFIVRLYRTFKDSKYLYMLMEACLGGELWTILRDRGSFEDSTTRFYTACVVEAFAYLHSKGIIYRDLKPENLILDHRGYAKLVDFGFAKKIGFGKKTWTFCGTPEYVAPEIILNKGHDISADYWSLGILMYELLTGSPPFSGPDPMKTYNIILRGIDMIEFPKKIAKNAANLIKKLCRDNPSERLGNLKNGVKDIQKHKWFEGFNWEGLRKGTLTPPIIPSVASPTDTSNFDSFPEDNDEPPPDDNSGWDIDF

[4] = target: Serine/threonine-protein kinase pim-2 (Homo sapiens) (UniProt Q9P1W9); assay: Inhibition of recombinant human full length N-terminal GST/His6-tagged PIM2 (M1 to P311) expressed in baculovirus infected Sf9 insect cells at 20 nM using phosphatidylserine as substrate incubated for 60 mins in presence of [33P]-ATP by scintillation counting method
Chain of Serine/threonine-protein kinase pim-2 (Homo sapiens) (Q9P1W9 whole entry, looked up): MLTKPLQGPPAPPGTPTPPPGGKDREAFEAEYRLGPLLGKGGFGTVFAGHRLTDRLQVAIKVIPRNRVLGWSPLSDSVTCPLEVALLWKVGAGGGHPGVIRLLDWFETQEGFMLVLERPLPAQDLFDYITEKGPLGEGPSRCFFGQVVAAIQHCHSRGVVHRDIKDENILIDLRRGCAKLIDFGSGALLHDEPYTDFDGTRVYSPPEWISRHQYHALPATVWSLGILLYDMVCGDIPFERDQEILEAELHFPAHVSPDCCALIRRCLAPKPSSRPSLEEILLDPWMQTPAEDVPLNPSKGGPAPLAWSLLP

[5] = target: MAP kinase-activated protein kinase 5 (Homo sapiens) (UniProt Q8IW41); assay: Inhibition of recombinant human full length MAPKAPK5 (M1 to Q471) expressed in Escherichia coli at 20 nM using phosphatidylserine as substrate incubated for 60 mins in presence of [33P]-ATP by scintillation counting method
Chain of MAP kinase-activated protein kinase 5 (Homo sapiens) (Q8IW41 whole entry): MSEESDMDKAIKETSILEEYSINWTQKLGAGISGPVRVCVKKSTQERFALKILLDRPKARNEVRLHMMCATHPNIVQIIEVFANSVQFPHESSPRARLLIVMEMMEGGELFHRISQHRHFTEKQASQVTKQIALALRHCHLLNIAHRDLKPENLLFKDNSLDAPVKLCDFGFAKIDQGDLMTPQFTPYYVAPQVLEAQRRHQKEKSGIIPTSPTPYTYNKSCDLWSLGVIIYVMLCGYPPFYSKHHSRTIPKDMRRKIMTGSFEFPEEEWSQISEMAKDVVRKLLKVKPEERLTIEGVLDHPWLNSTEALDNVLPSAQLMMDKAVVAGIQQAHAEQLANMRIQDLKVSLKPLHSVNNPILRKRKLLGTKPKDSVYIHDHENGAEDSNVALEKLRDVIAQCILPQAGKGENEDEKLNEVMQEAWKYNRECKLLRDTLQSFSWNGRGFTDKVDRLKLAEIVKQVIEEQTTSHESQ

[6] = target: Aurora kinase A (Homo sapiens) (UniProt O14965); assay: Inhibition of recombinant human full length N-terminal GST/His6-tagged Aurora-A (M1 to S403) expressed in Sf9 insect cells at 20 nM using phosphatidylserine as substrate incubated for 60 mins in presence of [33P]-ATP by scintillation counting method
Chain of Aurora kinase A (Homo sapiens) (O14965 whole entry): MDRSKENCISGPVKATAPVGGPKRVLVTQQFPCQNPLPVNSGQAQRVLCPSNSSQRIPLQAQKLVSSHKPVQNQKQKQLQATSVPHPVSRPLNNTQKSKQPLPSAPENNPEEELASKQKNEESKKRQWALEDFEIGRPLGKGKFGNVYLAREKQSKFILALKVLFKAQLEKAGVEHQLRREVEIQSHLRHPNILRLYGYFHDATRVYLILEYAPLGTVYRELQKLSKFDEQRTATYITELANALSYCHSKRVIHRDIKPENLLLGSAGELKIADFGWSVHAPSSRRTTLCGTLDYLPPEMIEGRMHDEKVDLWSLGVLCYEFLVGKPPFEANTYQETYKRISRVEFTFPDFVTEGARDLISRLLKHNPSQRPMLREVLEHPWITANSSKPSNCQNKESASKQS

[7] = Half life in Sprague-Dawley rat at 1 mg/kg, iv; format: ADME, organism-based; conditions: in vivo
[8] = Clearance in Sprague-Dawley rat at 1 mg/kg, iv; format: ADME, organism-based; conditions: in vivo
[9] = test system: Rattus norvegicus; assay: Unbound drug level in plasma of CFA induced Sprague-Dawley rat at 100 mg/kg, po after 1 hr; format: ADME, organism-based; conditions: in vivo
[10] = target: Casein kinase I isoform delta (Homo sapiens) (UniProt P48730); assay: Inhibition of CK1-delta (unknown origin) at 20 nM using phosphatidylserine as substrate incubated for 60 mins in presence of [33P]-ATP by scintillation counting method
Chain of Casein kinase I isoform delta (Homo sapiens) (P48730 whole entry, looked up, canonical isoform): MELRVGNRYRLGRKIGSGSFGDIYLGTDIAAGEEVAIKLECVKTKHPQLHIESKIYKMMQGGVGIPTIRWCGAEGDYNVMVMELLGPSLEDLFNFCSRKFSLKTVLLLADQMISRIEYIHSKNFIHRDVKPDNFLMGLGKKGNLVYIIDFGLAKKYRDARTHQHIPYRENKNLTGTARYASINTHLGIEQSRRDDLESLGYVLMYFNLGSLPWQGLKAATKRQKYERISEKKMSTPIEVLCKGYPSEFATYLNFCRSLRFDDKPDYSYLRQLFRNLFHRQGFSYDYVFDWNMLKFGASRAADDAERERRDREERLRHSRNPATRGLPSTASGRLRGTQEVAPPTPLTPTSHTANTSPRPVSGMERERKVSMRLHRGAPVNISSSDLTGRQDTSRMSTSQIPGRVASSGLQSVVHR

[11] = target: Dual specificity tyrosine-phosphorylation-regulated kinase 1A (Homo sapiens) (UniProt Q13627); assay: Inhibition of DYRK1A (unknown origin) at 20 nM using phosphatidylserine as substrate incubated for 60 mins in presence of [33P]-ATP by scintillation counting method
[12] = target: Serine/threonine-protein kinase PAK 2 (Homo sapiens) (UniProt Q13177); assay: Inhibition of recombinant human N-terminal GST/His6-tagged PAK2 (D3 to R524) expressed in Sf9 insect cells at 20 nM using phosphatidylserine as substrate incubated for 60 mins in presence of [33P]-ATP by scintillation counting method
Chain of Serine/threonine-protein kinase PAK 2 (Homo sapiens) (Q13177 whole entry): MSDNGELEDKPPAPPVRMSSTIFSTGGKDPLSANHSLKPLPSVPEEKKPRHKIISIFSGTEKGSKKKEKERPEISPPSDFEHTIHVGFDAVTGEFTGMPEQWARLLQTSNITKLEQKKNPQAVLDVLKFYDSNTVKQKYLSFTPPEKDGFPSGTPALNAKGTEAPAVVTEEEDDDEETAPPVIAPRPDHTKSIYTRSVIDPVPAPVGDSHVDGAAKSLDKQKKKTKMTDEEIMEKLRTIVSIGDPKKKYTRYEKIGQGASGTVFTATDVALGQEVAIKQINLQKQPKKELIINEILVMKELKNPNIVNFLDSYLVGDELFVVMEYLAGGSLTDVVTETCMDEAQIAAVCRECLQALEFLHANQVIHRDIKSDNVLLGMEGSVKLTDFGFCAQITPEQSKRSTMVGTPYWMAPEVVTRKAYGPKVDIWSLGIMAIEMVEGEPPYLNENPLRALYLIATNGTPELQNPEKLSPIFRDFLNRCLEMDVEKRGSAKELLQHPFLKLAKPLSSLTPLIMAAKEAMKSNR

[13] = Unbound drug level in brain of CFA induced Sprague-Dawley rat at 4 mg/kg, po after 1 hr; format: ADME, organism-based; conditions: in vivo, BLD = below limit of detection

Drug uptake(free) [2]: 3.5 nM | inhibition [3]: -5% | inhibition [4]: -1% | inhibition [5]: 6% | inhibition [6]: -7% | half-life [7]: 1.46 h | clearance [8]: 73.3 mL/min/kg | Cp(f) [9]: 266.5 nM | inhibition [10]: 5% | inhibition [11]: -7% | inhibition [12]: 12% | Drug uptake(free) [13]: Bld
SMILES: Cn1cc(-c2n[nH]c3ccc(NCc4cc(F)ccc4S(C)(=O)=O)cc23)cn1
Activity [1]: Non-Toxic
